Results as given in patent publication US6737383B1, “Herbicidal oxadiazolidines” (priority 1999, dated 2004).

What was measured:
bamyardgrass = assay: Test B flood test barnyardgrass; format: in vivo, Echinochloa crus-galli
Procedure, shortened: (§1)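 Plants were grown to the 2-leaf stage before treatment with test chemical, then held in a greenhouse for twelve to sixteen days. Injury was visually rated against untreated controls on a 0–10 scale, where 0 is no effect and 10 is complete control.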

smallflower flatsedge = assay: Test B flood test smallflower flatsedge; format: in vivo, Cyperus difformis
Procedure, shortened: as §1

bedstraw = assay: Test B pre/postemergence bedstraw; format: in vivo, Galium aparine; conditions: Postemergence
Procedure, shortened: (§2)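 Herbicidal effect was estimated by eye on a ten-point control scale after plants spent twelve to sixteen days in a greenhouse following soil or foliar treatment. Foliar sprays targeted plants at one to four leaves; all doses were formulated in a non-phytotoxic solvent with surfactant.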

wheat = assay: Test B pre/postemergence wheat; format: in vivo, Triticum aestivum; conditions: for Plant response rating, Wheat: scale of 0 to 10 where 0 is no effect and 10 is complete control
Procedure, shortened: as §2

[1] = Rate 62 g/ha, flood test species, Pre-emergence, visual evaluation after twelve to sixteen days
[2] = Rate 125 g/ha, under heading Pre-emergence, flood test species, visual evaluation after twelve to sixteen days
[3] = Rate 250 g/ha, Pre-emergence (flood test species), scale 0 to 10, 0 is no effect, 10 is complete control
[4] = Rate 500 g/ha, Pre-emergence, flood test species, scale 0 to 10 (0 no effect, 10 complete control)

CC(C)N(C(=O)n1oc(=O)n(CO)c1=O)c1ccc(F)cc1 [Compound 470]
0: Plant response rating, Barnyardgrass (0 to 10 scale, 0 is no effect, 10 is complete control) (bamyardgrass; [1]) | Barnyardgrass plant response rating (0 to 10 scale, 0 is no effect, 10 is complete control) (bamyardgrass; [2]) | Barnyardgrass plant response rating (bamyardgrass; [3]) | Barnyardgrass plant response rating (bamyardgrass; [4]) | Plant response rating, S. Flatsedge (0 to 10 scale, 0 is no effect, 10 is complete control) (smallflower flatsedge; [1]) | S. Flatsedge plant response rating (0 to 10 scale, 0 is no effect, 10 is complete control) (smallflower flatsedge; [2]) | S. Flatsedge plant response rating (smallflower flatsedge; [3]) | S. Flatsedge plant response rating (smallflower flatsedge; [4]) | Bedstraw plant response rating (bedstraw; Rate 62 g/ha, scale 0 to 10 (0 no effect, 10 complete control)) | Bedstraw plant response rating (bedstraw; Rate 125 g/ha, scale 0 to 10, 0 is no effect, 10 is complete control) | Wheat plant response rating (wheat; Postemergence, Rate 250 g/ha, scale 0 to 10) | Plant response rating, Wheat (wheat; Preemergence, Rate 62 g/ha) | Plant response rating, Wheat (wheat; Preemergence, Rate 125 g/ha) | Wheat plant response rating (wheat; Preemergence, Rate 250 g/ha, scale 0 to 10, 0 is no effect, 10 is complete control) | Wheat plant response rating (wheat; Preemergence, Rate 500 g/ha, scale 0 to 10, 0 is no effect, 10 is complete control) | Wheat plant response rating (wheat; Rate 62 g/ha, Postemergence, scale 0 to 10 (0 no effect, 10 complete control)) | Wheat plant response rating (wheat; Rate 125 g/ha, Postemergence, scale 0 to 10, 0 is no effect, 10 is complete control)
